{
  "source": "patent US10787695B2",
  "about": "“Systems and methods for rapidly sensing microbial metabolism” (General Electric Company, priority 2017, dated 2020)",
  "system": "bacteria",
  "experiment": "bacteria growth within chambers of a bacteria culture array with or without ampicillin (FIG. 33)",
  "type": "cell-based",
  "details": "chambers that included ampicillin vs chambers without ampicillin; FIG. 33, graph 168",
  "text": "Furthermore, the bacteria culture arrays of the present disclosure may be used to assess the effect of drugs on bacteria samples. For instance, single cells of bacteria may be added the chambers of a bacteria culture array, and drugs and/or antimicrobial agents may be added to some or all of the chambers. In other words, single cell bacteria activity may be used to conduct population-based analysis of bacteria samples. With this in mind, FIG. 33 is a graph 168 showing bacteria growth within chambers of a bacteria culture array.\nVisual confirmation of the results shown in the graph 168 were also obtained. FIG. 34 is images […] of the chambers of the bacteria culture array.",
  "data": [
    {"molecule": "CC1(C)S[C@@H]2[C@H](NC(=O)[C@H](N)c3ccccc3)C(=O)N2[C@H]1C(=O)O", "note": "[ampicillin]", "values": [
      {"measurement": "bacteria growth within chambers of a bacteria culture array", "result": "hindrance to growth"}
    ]}
  ]
}
